Test results published in ChEMBL document CHEMBL1201862, “PubChem BioAssay data set” (2004).
Calls of active or inactive are those of the source.

Tests used:
Trypsin = Trypsin (Sus scrofa, UniProt P00761); assay: trypsin protease activity blockade – biochemical, quenched peptide fluorescence, cherry-pick, selectivity assay for Rce1 protease inhibitor project, dose response (AID 488789)
CAAX prenyl protease 2 [1] = molecular target: CAAX prenyl protease 2 (Homo sapiens, UniProt Q9Y256); assay: inhibition of Ras-converting CAAX protease Rce1 – biochemical, yeast membranes, quenched-peptide fluorescence, cherry-pick, dose response (AID 588849)
Sequence of CAAX prenyl protease 2 (Homo sapiens, UniProt Q9Y256) (Q9Y256 whole entry): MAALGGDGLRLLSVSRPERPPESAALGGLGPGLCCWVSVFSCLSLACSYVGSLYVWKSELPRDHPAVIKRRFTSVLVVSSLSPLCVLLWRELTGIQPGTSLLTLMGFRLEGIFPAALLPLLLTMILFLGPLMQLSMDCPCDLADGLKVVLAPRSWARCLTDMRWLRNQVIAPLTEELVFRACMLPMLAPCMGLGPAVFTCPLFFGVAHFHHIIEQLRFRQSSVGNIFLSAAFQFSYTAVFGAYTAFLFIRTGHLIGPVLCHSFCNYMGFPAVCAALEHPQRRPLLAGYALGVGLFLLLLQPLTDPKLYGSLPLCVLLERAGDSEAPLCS

CAAX prenyl protease 2 [2] = molecular target: CAAX prenyl protease 2 (Saccharomyces cerevisiae S288c, UniProt Q03530); assay type: biochemical
Sequence of CAAX prenyl protease 2 (Saccharomyces cerevisiae S288c, UniProt Q03530) (Q03530 whole entry): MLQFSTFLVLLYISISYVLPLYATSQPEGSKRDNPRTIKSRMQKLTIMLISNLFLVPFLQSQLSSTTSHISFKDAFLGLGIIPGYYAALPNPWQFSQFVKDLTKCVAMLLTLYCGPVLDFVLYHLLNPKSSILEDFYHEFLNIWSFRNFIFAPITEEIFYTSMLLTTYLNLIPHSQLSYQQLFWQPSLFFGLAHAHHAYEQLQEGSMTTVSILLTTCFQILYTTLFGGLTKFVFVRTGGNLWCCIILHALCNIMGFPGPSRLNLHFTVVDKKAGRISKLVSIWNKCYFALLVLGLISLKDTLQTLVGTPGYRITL

[3] = molecular target: T1, Heat shock factor protein 1 (Mus musculus, UniProt P38532); assay: decrease of HSF1-responsive luciferase luminescence – cell-based, NIH3T3, dose retest, confirmation (AID 2382); assay type: functional;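 further: NIH3T3 fibroblasts with HSF1-driven luciferase reporter stressed by proteasome inhibitor MG132; luminescence from HSF1-driven luciferase expression after 8 hours of MG132 stress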
T1 sequence (P38532 whole entry): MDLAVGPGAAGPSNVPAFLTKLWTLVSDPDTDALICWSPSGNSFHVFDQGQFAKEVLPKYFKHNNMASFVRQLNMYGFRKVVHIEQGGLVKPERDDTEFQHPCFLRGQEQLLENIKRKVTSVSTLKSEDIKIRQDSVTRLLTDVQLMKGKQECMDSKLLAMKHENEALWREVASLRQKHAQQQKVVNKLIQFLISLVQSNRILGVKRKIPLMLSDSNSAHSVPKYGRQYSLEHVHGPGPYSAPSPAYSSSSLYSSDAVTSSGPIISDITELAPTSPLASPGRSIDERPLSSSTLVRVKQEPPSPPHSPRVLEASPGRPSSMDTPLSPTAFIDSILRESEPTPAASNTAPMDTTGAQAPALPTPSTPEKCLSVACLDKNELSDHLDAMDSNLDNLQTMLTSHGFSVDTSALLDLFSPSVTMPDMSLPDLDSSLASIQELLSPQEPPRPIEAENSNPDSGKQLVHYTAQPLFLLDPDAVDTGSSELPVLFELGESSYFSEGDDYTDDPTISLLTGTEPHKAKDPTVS

BJ [4] = assay: BJ-TERT fibroblast viability loss – cell-based, RAS-independent, luminescence, dose response (AID 1933); assay type: functional; details: Homo sapiens
[5] = microbe, parasite or virus in culture; assay type: functional; details: Mycobacterium tuberculosis
Protein RecA = molecular target: T2, Protein RecA (Mycobacterium tuberculosis, UniProt P9WHJ3); assay: Fluorescence Cell-Free Homogeneous Dose Retest to Identify Inhibitors of RecA-Intein Splicing Activity. [Related pubchem assays (depositor defined):AID2097, AID2223, AID489010, AID492950]; assay type: functional
T2 sequence (P9WHJ3 whole entry): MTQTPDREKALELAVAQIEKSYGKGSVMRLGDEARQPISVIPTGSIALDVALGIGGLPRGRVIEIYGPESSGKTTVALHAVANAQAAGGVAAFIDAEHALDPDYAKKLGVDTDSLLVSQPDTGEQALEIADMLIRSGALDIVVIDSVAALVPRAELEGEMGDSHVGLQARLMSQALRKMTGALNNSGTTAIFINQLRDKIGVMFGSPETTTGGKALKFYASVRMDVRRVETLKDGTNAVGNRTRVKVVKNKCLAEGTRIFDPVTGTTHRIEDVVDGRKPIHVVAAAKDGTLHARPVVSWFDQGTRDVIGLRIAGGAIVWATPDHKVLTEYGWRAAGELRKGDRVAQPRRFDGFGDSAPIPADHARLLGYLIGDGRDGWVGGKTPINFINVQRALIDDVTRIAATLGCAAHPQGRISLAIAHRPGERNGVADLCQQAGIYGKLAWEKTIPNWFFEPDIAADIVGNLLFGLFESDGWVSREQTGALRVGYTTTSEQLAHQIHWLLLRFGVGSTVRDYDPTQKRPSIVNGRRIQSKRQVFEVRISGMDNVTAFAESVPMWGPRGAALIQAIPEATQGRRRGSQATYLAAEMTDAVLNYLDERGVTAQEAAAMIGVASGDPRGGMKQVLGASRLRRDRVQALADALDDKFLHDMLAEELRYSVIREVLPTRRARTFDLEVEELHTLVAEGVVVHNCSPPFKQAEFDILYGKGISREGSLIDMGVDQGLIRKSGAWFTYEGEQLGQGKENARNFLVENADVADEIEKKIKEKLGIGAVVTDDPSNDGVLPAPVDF

[6] = DRD fibroblast viability loss – cell-based, non-viral oncogenic, luminescence, dose response (AID 1934); assay type: functional; details: Homo sapiens
BJ [7] = assay: growth inhibition of engineered Ras-driven BJ cells – cell-based, alamar blue fluorescence, cherrypicked samples, dose response (AID 2631); assay type: functional; details: Homo sapiens;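 further: confirmatory dose-response assay in RAS-dependent BJ fibroblasts engineered with TERT, LT and ST, with cytotoxicity read by fluorescence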
[8] = general cell-killing toxicity readout – plate reader, dry powder samples, cytotoxicity control for PAX8 inhibitor project, dose response (AID 743021); assay type: functional, cell-based
BJ [9] = assay: cells; assay type: functional, cell-based; details: Homo sapiens
[10] = molecular target: T3, Replicative DNA helicase DnaB (Mycobacterium tuberculosis, UniProt P9WMR3); assay: DnaB intein splicing inhibitors, dose response, biochemical, cell-free fluorescence (AID 449749); assay type: functional
T3 sequence (P9WMR3 whole entry): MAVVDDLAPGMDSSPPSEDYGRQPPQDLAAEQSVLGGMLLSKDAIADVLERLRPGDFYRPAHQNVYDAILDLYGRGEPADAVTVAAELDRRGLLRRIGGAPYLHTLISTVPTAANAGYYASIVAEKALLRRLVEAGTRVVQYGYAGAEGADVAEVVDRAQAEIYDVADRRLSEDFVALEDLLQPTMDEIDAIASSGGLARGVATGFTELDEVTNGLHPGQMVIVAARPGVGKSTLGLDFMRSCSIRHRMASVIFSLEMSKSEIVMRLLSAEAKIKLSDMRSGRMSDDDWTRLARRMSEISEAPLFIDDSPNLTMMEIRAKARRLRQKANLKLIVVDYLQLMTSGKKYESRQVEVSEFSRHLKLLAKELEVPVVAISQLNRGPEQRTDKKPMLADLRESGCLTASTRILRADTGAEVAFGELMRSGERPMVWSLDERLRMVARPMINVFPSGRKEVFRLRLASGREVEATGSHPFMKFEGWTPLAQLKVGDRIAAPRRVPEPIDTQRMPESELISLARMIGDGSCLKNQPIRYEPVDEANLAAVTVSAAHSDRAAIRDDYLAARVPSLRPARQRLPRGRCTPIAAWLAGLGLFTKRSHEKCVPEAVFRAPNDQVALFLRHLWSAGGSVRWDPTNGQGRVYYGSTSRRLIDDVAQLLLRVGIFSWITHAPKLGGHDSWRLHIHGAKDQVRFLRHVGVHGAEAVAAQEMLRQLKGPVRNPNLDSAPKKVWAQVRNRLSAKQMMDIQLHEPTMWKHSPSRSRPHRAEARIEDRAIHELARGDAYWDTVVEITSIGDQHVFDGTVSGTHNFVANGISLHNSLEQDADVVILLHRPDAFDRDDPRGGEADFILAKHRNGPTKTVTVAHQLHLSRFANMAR

BJ [11] = assay: BJ-TERT-LT-ST fibroblast viability loss – cell-based, RAS-independent, luminescence, dose response (AID 1935); assay type: functional; details: Homo sapiens;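 further: BJ fibroblasts immortalized with TERT plus LT and ST oncogenes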
Paired box protein Pax-8 = Paired box protein Pax-8 (Homo sapiens, UniProt Q06710); assay: PAX8 transcriptional activity inhibition in RMG-I – RMG-I cells, luciferase, cherry-pick, dose response (AID 687027); assay type: functional, cell-based;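 further: luciferase reporter driven by Pax8 target thyroperoxidase promoter measured by SteadyGlo luminescence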
Sequence of Paired box protein Pax-8 (Q06710 whole entry): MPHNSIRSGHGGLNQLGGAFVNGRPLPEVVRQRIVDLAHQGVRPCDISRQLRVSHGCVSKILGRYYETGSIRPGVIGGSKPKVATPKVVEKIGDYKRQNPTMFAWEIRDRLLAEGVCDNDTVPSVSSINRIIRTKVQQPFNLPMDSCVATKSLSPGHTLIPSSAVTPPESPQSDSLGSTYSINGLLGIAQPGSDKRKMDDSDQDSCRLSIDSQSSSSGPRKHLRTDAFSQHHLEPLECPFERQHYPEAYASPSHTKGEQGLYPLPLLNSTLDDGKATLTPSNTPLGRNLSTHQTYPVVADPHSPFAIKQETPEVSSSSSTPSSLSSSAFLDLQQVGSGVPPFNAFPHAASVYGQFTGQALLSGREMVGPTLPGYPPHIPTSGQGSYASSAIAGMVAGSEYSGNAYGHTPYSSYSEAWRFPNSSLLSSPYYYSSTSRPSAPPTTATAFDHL

[12] = Intein inhibitors as potential Tuberculosis drugs, a cytotoxicity screen. [Related pubchem assays (depositor defined):AID2221, AID2223, AID434968, AID435010, AID449749, AID449750, AID489010]; assay type: functional
[13] = HEK-293T cell viability reduction – luminescence, B-cell screen hits, cytotoxicity control for BCR NF-kB inhibitor project, dose response (AID 489021); assay type: functional, cell-based;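 further: HEK-293T cells carrying an NF-kB luciferase reporter; cells exposed to compound for about 14 hours before viability readout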

Sequence of Trypsin (P00761 whole entry): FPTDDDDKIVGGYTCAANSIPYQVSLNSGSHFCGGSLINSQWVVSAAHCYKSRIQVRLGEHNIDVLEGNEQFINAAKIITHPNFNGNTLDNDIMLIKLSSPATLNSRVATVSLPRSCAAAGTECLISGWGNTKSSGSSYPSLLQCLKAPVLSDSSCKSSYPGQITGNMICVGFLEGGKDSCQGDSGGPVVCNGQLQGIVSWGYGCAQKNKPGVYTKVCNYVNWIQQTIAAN

| SMILES | AC50 (Trypsin) | AC50 (CAAX prenyl protease 2 [1]) | AC50 (CAAX prenyl protease 2 [2]) | EC50 [3] | EC50 (BJ [4]) | CC50 [5] | EC50 (Protein RecA) | EC50 [6] | EC50 (BJ [7]) | AC50 [8] | EC50 (BJ [9]) | AC50 [10] | EC50 (BJ [11]) | AC50 (Paired box protein Pax-8) | CC50 [12] | IC50 [13] |
| --- | --- | --- | --- | --- | --- | --- | --- | --- | --- | --- | --- | --- | --- | --- | --- | --- |
| CC1(C(=O)N(CC(=O)NC2CCCC2)Cc2ccccc2)CC(=O)N=C2C=CC=CN21 (stereo unspecified) | 4.57 µM (active) | 2.75 µM (active) | 4.24 µM (active) |  |  |  |  |  |  |  |  |  |  |  |  |  |
| C=CCOc1ccccc1CN(C(=O)CCl)c1ccc2c(c1)OCO2 |  |  |  | 4.88 µM (active) | 0.7 µM (inconclusive) | 1.68 µM (active) | 0.481 µM (active) | 5.04 µM (active) | > 66.7 µM (inactive) | 9.67 µM (active) | 4.58 µM (active) | 2.37 µM (active) | 17.3 µM (inconclusive) | 5.46 µM (active) | 2.07 µM (active) | 62.1 µM (inactive) |
